Laboratory results reported in PMC12278645, “Design, synthesis, and antitumor activity of novel thioheterocyclic nucleoside derivatives by suppressing the c-MYC pathway” (Acta Pharmaceutica Sinica. B, 2025).

Assays:
[1] = test system: MCF-7 (human breast cancer); assay: CCK-8 anti-proliferation assay, MCF-7; type: cell-based; details: Homo sapiens, MCF7; CCK-8, 48 h, mean ± SD
Experimental: (§1) To evaluate their spectrum of anti-proliferative activity, further CCK-8 assays were carried out with the selected compounds (5a/5b, 8a/8b, 33a/33b, and 36a/36b) on MCF-7 (human breast cancer), A375 (human malignant melanoma), DU145 (human prostate cancer), and CT26 (mouse colon cancer) cell lines. The selected compounds had moderate to potent antitumor activity on the four cell lines, indicating their broad spectrum of antitumor activity (Table 5).
(§2) MCF-7, A375, and HeLa cells were cultured in DMEM, HCT116 cells were cultured in McCoy's 5A medium, and DU145 and CT26 were cultured in RPMI 1640 with 10% FBS, 1% penicillin-streptomycin solution (10,000 U/mL penicillin and 10,000 μg/mL streptomycin) at 37 °C under 5% CO2. The cells were seeded in 96-well plates (4 × 10^3 cells/well) overnight and then treated with various concentrations (1–50 μmol/L) of the compound. After 48 h, the cell viability was measured by CCK-8 assay. The absorbance of each well was measured using a microplate reader (Multiskan FC, Thermo Fisher Scientific, Massachusetts, USA) at 450 nm wavelength. Assays were performed in triplicate. Compound concentrations that inhibited cell growth by 50% (IC50) were calculated from the dose–response curves of each cell line. Data are mean ± SD values from three independent experiments.

[2] = test system: CT26 (mouse colon cancer); assay: CCK-8 anti-proliferation assay, CT26; type: cell-based; details: Mus musculus, CT26; CCK-8, 48 h, mean ± SD
Experimental: as §1, §2

HCT116 cells [3] = assay: EdU assay; type: cell-based, human; details: 48 h
Experimental: HCT116 cells were seeded in 96-well plates (4 × 10^4 cells/well) overnight and then the cells were treated with various concentrations of compound 33a or 36b. After 48 h, the experiment operation process was performed according to the manufacturer's instructions. Images were obtained with a Leica DMIL fluorescence microscope (Leica Microsystems, Wetzlar, Germany).

HCT116 cells [4] = assay: Cell apoptosis (Annexin V-FITC/PI, flow cytometry); type: cell-based, human; details: 48 h
Experimental: HCT116 cells were seeded in 6-well plates (4 × 10^5 cells/well). The following day, defined concentrations of compound 33a or 36b were added to the wells for 48 h at 37 °C with 5% CO2. The cells were collected and stained with Annexin V-FITC and PI for 15 min at room temperature. Apoptotic cells were analyzed with flow cytometry (BD Bioscience).

HCT116 cells [5] = assay: Intracellular ROS measurement (DCFH-DA); type: cell-based, human; details: 48 h
Experimental: HCT116 cells were seeded in 96-well plates overnight and then the cells were treated with defined concentrations of compound 33a or 36b. In addition, cells were pretreated with 0.8 mmol/L NAC for 1 h. After 48 h, the cells were washed with PBS. DCFH-DA (100 μL, 100 μmol/L) was added to each well and incubated for 30 min at 37 °C, and the cells were washed twice with PBS. Finally, the cells were cultivated in a 100 μL culture medium and the fluorescence signals were detected with an EnVision® NexusTM Multi-Mode Microplate Reader or flow cytometry (Becton, Dickinson Company).

HCT116 cells [6] = assay: Autophagy (Western blot of P62, LC3, Beclin1; TEM; MDC staining); type: cell-based, human; details: 48 h
Experimental: (§3) Whole protein was extracted and separated by polyacrylamide gel electrophoresis (SDS-PAGE) and transferred onto nitrocellulose membranes. Membranes were blotted with CDK1, Cyclin B1, Caspase-3, BAX, BCL-2, PARP-1, γ-H2AX, P53, ATF4, CHOP, PERK, ATP6, LC3, Beclin1, P62, β-Catenin, c-MYC, MAX, UPP1, GAPDH, β-Actin, and β-Tubulin primary antibodies. Protein band analyses were performed with ImageJ software and protein expression levels were presented as a percentage difference compared to control.

c-MYC [7] = biological target: T1, c-MYC (Homo sapiens, UniProt P01106); assay: Surface plasmon resonance (SPR) assay; type: binding; details: c-MYC immobilized on CM5 chip, 25 °C
T1 sequence (P01106 whole entry): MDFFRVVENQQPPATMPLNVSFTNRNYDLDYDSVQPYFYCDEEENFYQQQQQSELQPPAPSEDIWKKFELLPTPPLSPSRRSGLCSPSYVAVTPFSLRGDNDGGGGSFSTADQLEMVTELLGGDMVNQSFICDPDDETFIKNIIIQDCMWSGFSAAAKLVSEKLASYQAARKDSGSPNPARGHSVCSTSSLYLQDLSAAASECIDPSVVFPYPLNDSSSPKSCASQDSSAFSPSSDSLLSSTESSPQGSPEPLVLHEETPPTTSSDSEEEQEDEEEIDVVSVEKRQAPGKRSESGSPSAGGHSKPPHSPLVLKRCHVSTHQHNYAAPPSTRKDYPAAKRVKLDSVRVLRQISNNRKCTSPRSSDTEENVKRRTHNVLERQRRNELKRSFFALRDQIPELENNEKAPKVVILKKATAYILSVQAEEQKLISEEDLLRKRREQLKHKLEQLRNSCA
Experimental: SPR analyses to evaluate the interaction of thioheterocyclic nucleoside derivatives with c-MYC immobilized onto a CM5 sensor chip (Cytiva, BR100012, Sweden) were performed using a Biacore T200 apparatus (Cytiva, Sweden) at 25 °C. During the analyte–ligand interaction, the change of the refractive index was measured in real-time which allowed interaction results to be plotted as response units (RU) versus time.

[8] = test system: c-MYC signal path in HCT116 cells; assay: Western blot of c-MYC and downstream proteins; type: cell-based, human
Experimental: as §3

Pharmacokinetic analysis = type: in vivo, Sprague–Dawley rats; details: for clearance / half-life / Vd / Cmax / Tmax / AUC(0-inf): male, Sprague-Dawley, plasma; for clearance / half-life / Vd / Cmax / Tmax / AUC0-∞: rat; for Vd: read-out: Vss; for AUC(0-inf): heading: AUC0-∞, Table S5, rat
Experimental: All animal studies and procedures were approved by the Animal Ethics Committee of College of Chemistry and Chemical Engineering, Henan Normal University, China. Male Sprague–Dawley rats (220 ± 10 g, Shanghai Yuanxin Biological Co., Ltd., Shanghai, China) were used to evaluate drug pharmacokinetic properties. Briefly, compound 33a or 36b was dissolved in PBS containing 10% DMSO and 20% castor oil. Rats were treated with 1 mg/kg of compound 33a or 36b for intravenous injection and 2 mg/kg for oral intragastric administration. Blood samples were collected from each rat at 0, 0.083, 0.25, 0.5, 1, 2, 4, 6, 8, 12, and 24 h. Plasma was isolated from the blood samples by centrifugation (1200 rpm, 4 °C, 10 min. ThermoFisher Scientific, Thermo Electron LED GmbH, Zweigniederlassung Osterode Am Kalkberg, Osterode am Harz, Germany). Sample concentrations were determined by LC-MS/MS (API 4000, AB SCIEX) based on a standard curve. All data were calculated by Excel software.

c-MYC [9] = biological target: T1, c-MYC; assay: Drug affinity responsive target stability (DARTS) assay; type: binding; set-up: HCT116 cells were lysed with mammalian protein extraction reagent (M-PER); endogenous in cells; host or cells: HCT116; details: HCT116 lysate, pronase, 0-640 μmol/L
Experimental: HCT116 cells were lysed with mammalian protein extraction reagent (M-PER), centrifuged, and quantified by BCA protein assay. […] Proteolysis was performed by adding pronase solution at a ratio of 1:3200 for 30 min at room temperature and then stopped by adding SDS-PAGE sample loading buffer and boiling at 100 °C for 5 min. c-MYC protein was analyzed by Western blot.

SMILES	IC50 [1]	IC50 [2]	EdU-positive cells (HCT116 cells [3])	apoptosis (HCT116 cells [4])	ROS levels (HCT116 cells [5])	autophagy (HCT116 cells [6])	Kd (c-MYC [7])	protein levels of c-MYC, β-Catenin, MAX, P21 [8]	clearance (Pharmacokinetic analysis; IV, 1 mg/kg)	half-life (Pharmacokinetic analysis; IV, 1 mg/kg)	Vd (Pharmacokinetic analysis; IV, 1 mg/kg)	Cmax (Pharmacokinetic analysis; oral (i.g.), 2 mg/kg)	Tmax (Pharmacokinetic analysis; oral (i.g.), 2 mg/kg)	half-life (Pharmacokinetic analysis; oral (i.g.), 2 mg/kg)	AUC0-∞ (Pharmacokinetic analysis; IV, 1 mg/kg)	AUC0-∞ (Pharmacokinetic analysis; oral (i.g.), 2 mg/kg)	stability of c-MYC against proteolysis (c-MYC [9])	AUC(0-inf) (Pharmacokinetic analysis; 1 mg/kg, IV, 1 mg/kg)	AUC(0-inf) (Pharmacokinetic analysis; 2 mg/kg, oral, 2 mg/kg)
CCOC(=O)[C@]1(n2cnc3c(N4CCCCC4)nc(F)nc32)CSC[C@H]1O (racemic) [33a]	8.45 ± 1.03 µM	0.57 ± 0.13 µM	significantly fewer EdU-positive cells than in the control group	induced apoptosis in a dose-dependent manner	significantly increased ROS levels in a dose-dependent manner	could inhibit autophagy in HCT116	42.9 µM	c-MYC, β-Catenin, and MAX were significantly decreased, whereas the expression of p21 increased significantly in a dose-dependent manner	5.1 mL/min/kg	5 h	2.15 L/kg	301 ng/mL	4 h	6.8 h	3270 ng·h/mL	3310 ng·h/mL	increase the stability of c-MYC in the process of protease hydrolysis		
CCCSc1nc(F)nc2c1ncn2[C@@]1(C(=O)OCC)CSC[C@@H]1O (relative stereo) [36b]	14.1 ± 1.24 µM	0.85 ± 0.09 µM	significantly fewer EdU-positive cells than in the control group	induced apoptosis in a dose-dependent manner	significantly increased ROS levels in a dose-dependent manner	could up-regulate the protein levels of P62 but showed no obvious effect on LC3-II and Beclin1	206 µM	c-MYC, β-Catenin, and MAX were significantly decreased, whereas the expression of p21 increased significantly in a dose-dependent manner	1.89 mL/min/kg	4.9 h	3.54 L/kg	276 ng/mL	4 h	4.1 h			increase the stability of c-MYC in the process of protease hydrolysis	8800 ng·h/mL	1800 ng·h/mL
